Assay results reported in ChEMBL document CHEMBL4765480 (J Med Chem, 2021).
Values after ≈ are worked out from the molar mass of the structure shown.

Tests used:
[1] = AUC (0 to 24 hrs) in mouse at 10 mg/kg, po; assay type: ADME, organism-based; design: time < 24 hr, route oral, dose 10 mg/kg; conditions: in vivo
[2] = Volume of distribution at steady state in mouse at 10 mg/kg, po; assay type: ADME, organism-based; conditions: in vivo
[3] = Oral bioavailability in mouse at 10 mg/kg; assay type: ADME, organism-based; conditions: in vivo
[4] = Cmax in mouse at 10 mg/kg, po; assay type: ADME, organism-based; design: route oral, dose 10 mg/kg; conditions: in vivo
[5] = Clearance in mouse at 10 mg/kg, po; assay type: ADME, organism-based; conditions: in vivo
[6] = Stability in mouse liver microsomes assessed as parent compound remaining after 10 mins; assay type: ADME, Microsome; conditions: read-out: Stabilty
[7] = Stability in rat liver microsomes assessed as parent compound remaining after 10 mins; assay type: ADME, Microsome; conditions: read-out: Stabilty
[8] = Stability in human liver microsomes assessed as parent compound remaining after 10 mins; assay type: ADME, Microsome; conditions: read-out: Stabilty
[9] = Aqueous solubility of compound at pH 6.5; assay type: physicochemical; conditions: aqueous solution
[10] = AUC (0 to 24 hrs) in dog at 10 mg/kg, po; assay type: ADME, organism-based, Canis lupus familiaris; design: time < 24 hr, route oral, dose 10 mg/kg; conditions: in vivo
[11] = Cmax in dog at 10 mg/kg, po; assay type: ADME, organism-based, Canis lupus familiaris; design: route oral, dose 10 mg/kg; conditions: in vivo
[12] = Cmax in cynomolgus monkey at 7 mg/kg, po; assay type: ADME, organism-based, Macaca fascicularis; design: route oral, dose 7 mg/kg; conditions: in vivo
[13] = Half life in mouse liver microsomes; assay type: ADME, Microsome
[14] = Oral bioavailability in rat at 10 mg/kg; assay type: ADME, organism-based; conditions: in vivo
[15] = Volume of distribution at steady state in rat at 10 mg/kg, po; assay type: ADME, organism-based; conditions: in vivo
[16] = Volume of distribution at steady state in dog at 10 mg/kg, po; assay type: ADME, organism-based, Canis lupus familiaris; conditions: in vivo
[17] = Oral bioavailability in dog at 10 mg/kg; assay type: ADME, organism-based, Canis lupus familiaris; conditions: in vivo
[18] = Clearance in dog at 10 mg/kg, po; assay type: ADME, organism-based, Canis lupus familiaris; conditions: in vivo
[19] = Volume of distribution at steady state in cynomolgus monkey at 7 mg/kg, po; assay type: ADME, organism-based, Macaca fascicularis; conditions: in vivo
[20] = AUC (0 to 24 hrs) in rat at 10 mg/kg, po; assay type: ADME, organism-based; design: time < 24 hr, route oral, dose 10 mg/kg; conditions: in vivo
[21] = AUC (0 to 24 hrs) in cynomolgus monkey at 7 mg/kg, po; assay type: ADME, organism-based, Macaca fascicularis; design: time < 24 hr, route oral, dose 7 mg/kg; conditions: in vivo
[22] = Cmax in rat at 10 mg/kg, po; assay type: ADME, organism-based; design: route oral, dose 10 mg/kg; conditions: in vivo
[23] = Oral bioavailability in cynomolgus monkey at 7 mg/kg; assay type: ADME, organism-based, Macaca fascicularis; conditions: in vivo
[24] = Half life in dog liver microsomes; assay type: ADME, Canis lupus familiaris, Microsome
[25] = Half life in monkey liver microsomes; assay type: ADME, Macaca mulatta, Microsome; conditions: rhesus monkey
[26] = Clearance in rat at 10 mg/kg, po; assay type: ADME, organism-based; conditions: in vivo
[27] = Half life in human liver microsomes; assay type: ADME, Microsome
[28] = Clearance in cynomolgus monkey at 7 mg/kg, po; assay type: ADME, organism-based, Macaca fascicularis; conditions: in vivo
[29] = Half life in rat liver microsomes; assay type: ADME, Microsome

Row | AUC(0-t) at 24 h [1] | Vdss [2] | bioavailability [3] | Cmax [4] | CL/F [5] | remaining at 10 min [6] | remaining at 10 min [7] | remaining at 10 min [8] | SMILES | other results
1 | 19 µM·h | 1.5 L/kg | 43% | 7.8 µM | 7.6 mL/min/kg |  |  |  | [2H]C([2H])([2H])NC(=O)c1nnc(NC(=O)C2CC2)cc1Nc1cccc(-c2cnc(C(=O)N(C)C)cn2)c1OC | 
2 | 26 µM·h | 3.4 L/kg | 41% | 6.1 µM | 5.3 mL/min/kg | 99% | 90% | 95% | [2H]C([2H])([2H])NC(=O)c1nnc(NC(=O)C2CC2)cc1Nc1cccc(-c2cnc(C(C)(C)O)cn2)c1OC | 
3 | 15 µM·h | 2.3 L/kg | 31% | 5.4 µM | 7.9 mL/min/kg | 78% | 77% | 100% | [2H]C([2H])([2H])NC(=O)c1nnc(NC(=O)C2CC2)cc1Nc1cccc(-c2ncccn2)c1OC | solubility [9]: < 1 µg/mL
4 |  |  |  |  |  | 0% | 8% | 60% | [2H]C([2H])([2H])NC(=O)c1nnc(NC(=O)C2CC2)cc1Nc1cccc(-c2cccnn2)c1OC | 
5 |  |  |  |  |  |  |  |  | [2H]C([2H])([2H])NC(=O)c1cnc(NC(=O)C2CC2)cc1Nc1cccc(-c2ncccn2)c1OC | solubility [9]: 32 µg/mL (≈ 75.9 µM)
6 |  |  |  |  |  | 1% | 1% | 58% | [2H]C([2H])([2H])NC(=O)c1nnc(NC(=O)C2CC2)cc1Nc1cccc(-c2cnccn2)c1OC | 
7 | 65 µM·h | 1.1 L/kg | 62% | 13 µM | 3 mL/min/kg |  |  |  | [2H]C([2H])([2H])NC(=O)c1cnc(NC(=O)C2CC2)cc1Nc1cccc(-c2ncc(F)cn2)c1OC [BMS-986202] | AUC(0-t) at 24 h [10]: 126 µM·h; Cmax [11]: 14 µM; Cmax [12]: 11 µM; half-life [13]: > 2 h; bioavailability [14]: 72%; Vdss [15]: 1.1 L/kg; Vdss [16]: 1.5 L/kg; bioavailability [17]: 100%; CL/F [18]: 1.8 mL/min/kg; Vdss [19]: 7 L/kg; AUC(0-t) at 24 h [20]: 77 µM·h; AUC(0-t) at 24 h [21]: 130 µM·h; Cmax [22]: 13 µM; bioavailability [23]: 100%; half-life [24]: 1.48 h; half-life [25]: > 2 h; CL/F [26]: 3.6 mL/min/kg; half-life [27]: > 2 h; CL/F [28]: 2.3 mL/min/kg; half-life [29]: > 2 h
8 |  |  |  |  |  | 89% | 100% | 98% | [2H]C([2H])([2H])NC(=O)c1nnc(NC(=O)C2CC2)cc1Nc1cccc(-c2ncn(C)n2)c1OC [DEUCRAVACITINIB] | 
9 |  |  |  |  |  | 42% | 34% | 79% | [2H]C([2H])([2H])NC(=O)c1nnc(NC(=O)C2CC2)cc1Nc1cccc(-c2ccccn2)c1OC | 
10 |  |  |  |  |  |  |  |  | [2H]C([2H])([2H])NC(=O)c1nnc(NC(=O)C2CC2)cc1Nc1cccc(-c2ncc(C(C)(C)O)cn2)c1OC | solubility [9]: 14 µg/mL (≈ 29.1 µM)
11 |  |  |  |  |  | 3% | 3% | 48% | [2H]C([2H])([2H])NC(=O)c1nnc(NC(=O)C2CC2)cc1Nc1cccc(-c2ccncn2)c1OC | 
